In US20130344026A1, “Dimeric Smac Mimetics” (priority 2009, published 2013):
*1 amine or outer side, *2 acyl side, *3 side chain or, on linkers, in order; H or OH if unused. Where a SMILES comes first, the peptide text is derived from it. Bridges are numbered along the chain shown (N, C = ends). Roman numbers before positions name the chains, in order. [ ]: non-standard residue; d: D form. NH(CH2)8NH = C(CCCCN[*:2])CCCN[*:1]; Chg = N[C@H](C(=O)O)C1CCCCC1; Tle = CC(C)(C)[C@H](N)C(=O)O; NMeA = CN[C@@H](C)C(=O)O

Tested on: HCC461
Assay: cell viability assay in HCC461, compound alone
Format: cell-based
Details: HCC461, HCC461; Tables 6-9; read-out: IC50 (μM) in cell viability assay in HCC461

IC50	Structure (SMILES)
0.404 µM	CN[C@@H](C)C(=O)N[C@@H](CC#CC#CC[C@H](NC(=O)[C@H](C)NC)C(=O)N1CCCC[C@H]1C(=O)N[C@@H]1CCCc2ccccc21)C(=O)N1CCCC[C@H]1C(=O)N[C@@H]1CCCc2ccccc21 [Compound 87]
> 30 µM	CN[C@@H](C)C(=O)N[C@H](C(=O)N[C@H]1C[C@@H](C(=O)N[C@@H]2CCCc3ccccc32)N(C(=O)[C@@H](NC(=O)[C@H](C)NC)C(C)(C)C)C1)C(C)(C)C [Compound 145]
0.622 µM	CN[C@@H](C)C(=O)N[C@@H](CCC(=O)O)C(=O)N1C[C@@H](NC(=O)c2cccc(C(=O)N[C@H]3C[C@@H](C(=O)N[C@H](C)c4ccccc4)N(C(=O)[C@@H](NC(=O)[C@H](C)NC)C(C)(C)C)C3)c2)CC1C(=O)N[C@H](C)c1ccccc1 (some centres unmarked) [Compound 148]
0.017 µM	CN[C@@H](C)C(=O)N[C@H](C(=O)N1C[C@@H](NC(=O)c2cccc(C(=O)N[C@H]3C[C@@H](C(=O)N[C@H](C)C(C)C)N(C(=O)[C@@H](NC(=O)[C@H](C)NC)C(C)(C)C)C3)c2)C[C@H]1C(=O)N[C@@H]1CCCc2ccccc21)C(C)(C)C [Compound 132]

Structure (SMILES)	IC50
CCC[C@H](NC(=O)[C@H](C)NC)C(=O)N1C[C@@H](NC(=O)c2cccc(C(=O)N[C@H]3C[C@@H](C(=O)N[C@@H]4CCCc5ccccc54)N(C(=O)[C@@H](NC(=O)[C@H](C)NC)C(C)(C)C)C3)c2)C[C@H]1C(=O)N1CCCCC1 [Compound 141]	0.109 µM

Same assay, conditions: HCC461, HCC461; Tables 15-18; read-out: IC50 (uM) in cell viability assay in HCC461

Structure (SMILES)	IC50
CN[C@@H](C)C(=O)N[C@@H](COCCCCCCOC[C@H](NC(=O)[C@H](C)NC)C(=O)N1CCCC1C(=O)N[C@@H]1CCCc2ccccc21)C(=O)N1CCCC1C(=O)N[C@@H]1CCCc2ccccc21 (some centres unmarked) [Compound P2-20]	0.043 µM
CN[C@@H](C)C(=O)N[C@H](C(=O)N1CCC[C@H]1C(=O)N[C@H](C(=O)NCCCCCCCCNC(=O)[C@@H](NC(=O)[C@@H]1CCCN1C(=O)[C@@H](NC(=O)[C@H](C)NC)C(C)(C)C)C1CCCCC1)C1CCCCC1)C(C)(C)C [Compound P4-7] (I: H-[NMeA][Tle]P[Chg] / II: H-[NMeA][Tle]P[Chg]; linker I:C-II:C via NH(CH2)8NH)	0.205 µM
CN[C@@H](C)C(=O)N[C@H](C(=O)N1CCC[C@H]1C(=O)N[C@H](CNC(=O)c1cccc(C(=O)NC[C@@H](NC(=O)[C@@H]2CCCN2C(=O)[C@@H](NC(=O)[C@H](C)NC)C2CCCCC2)C2CCCCC2)c1)C1CCCCC1)C1CCCCC1 [Compound P4-16]	0.13 µM
CC[C@H](NC)C(=O)N[C@@H](CCCCCC[C@H](NC(=O)[C@H](CC)NC)C(=O)N1CCC[C@H]1C(=O)N[C@@H]1CCCc2ccccc21)C(=O)N1CCC[C@H]1C(=O)N[C@@H]1CCCc2ccccc21 [Compound P2-12]	0.021 µM
CN[C@@H](C)C(=O)N[C@H](C(=O)N1CCC[C@H]1C(=O)N[C@H](CNC(=O)c1cc(N)cc(C(=O)NC[C@@H](NC(=O)[C@@H]2CCCN2C(=O)[C@@H](NC(=O)[C@H](C)NC)C(C)(C)C)C2CCCCC2)c1)C1CCCCC1)C(C)(C)C [Compound P4-9]	0.53 µM
CN[C@@H](C)C(=O)N[C@@H](CC#CC#CC[C@H](NC(=O)[C@H](C)NC)C(=O)N1CCC[C@H]1C(=O)NC1c2ccccc2-c2ccccc21)C(=O)N1CCC[C@H]1C(=O)NC1c2ccccc2-c2ccccc21 [Compound P2-5]	0.091 µM
CN[C@@H](C)C(=O)N[C@H](C(=O)N1CCC[C@H]1C(=O)N[C@H](CNC(=O)CCCC(=O)NC[C@@H](NC(=O)[C@@H]1CCCN1C(=O)[C@@H](NC(=O)[C@H](C)NC)C(C)(C)C)c1ccccc1)c1ccccc1)C(C)(C)C [Compound P4-14]	0.093 µM
CN[C@@H](C)C(=O)N[C@@H](CCCCNC(=O)c1ccc(C(=O)NCCCC[C@H](NC(=O)[C@H](C)NC)C(=O)N2CCC[C@H]2C(=O)NC(c2ccccc2)c2ccccc2)cc1)C(=O)N1CCC[C@H]1C(=O)NC(c1ccccc1)c1ccccc1 [Compound P2-30]	0.189 µM
CN[C@@H](C)C(=O)N[C@H](C(=O)N1CCC[C@H]1C(=O)N[C@H](CNC(=O)c1ccc(C(=O)NC[C@@H](NC(=O)[C@@H]2CCCN2C(=O)[C@@H](NC(=O)[C@H](C)NC)C(C)(C)C)c2ccccc2)cc1)c1ccccc1)C(C)(C)C [Compound P4-12]	0.038 µM
CN[C@@H](C)C(=O)N[C@@H](CCNC(=O)c1cc(C(=O)NCC[C@H](NC(=O)[C@H](C)NC)C(=O)N2CCC[C@H]2C(=O)N[C@@H]2CCCc3ccccc32)[nH]n1)C(=O)N1CCC[C@H]1C(=O)N[C@@H]1CCCc2ccccc21 [Compound P2-28]	0.163 µM

Same assay, conditions: HCC461, HCC461 cells, compound alone; read-out: IC50 (uM) in cell viability assay in HCC461

IC50	Structure (SMILES)
0.086 µM	C#CC[C@H](NC(=O)[C@H](C)NC)C(=O)N1C[C@@H](NC(=O)N[C@H]2C[C@@H](C(=O)N[C@@H]3CCCc4ccccc43)N(C(=O)[C@H](CC#C)NC(=O)[C@H](C)NC)C2)CC1C(=O)N[C@@H]1CCCc2ccccc21 (some centres unmarked) [Compound P3-9]
0.022 µM	CN[C@@H](C)C(=O)N[C@H](C(=O)N1C[C@@H](NC(=O)CCC(=O)N[C@H]2C[C@@H](C(=O)NC3CCCc4ccccc43)N(C(=O)[C@@H](NC(=O)[C@H](C)NC)C(C)(C)C)C2)C[C@H]1C(=O)NC1CCCc2ccccc21)C(C)(C)C (some centres unmarked) [Compound P3-1]
0.01 µM	CN[C@@H](C)C(=O)N[C@H](C(=O)N1C[C@@H](NC(=O)c2cccc(C(=O)N[C@H]3C[C@@H](C(=O)N[C@@H]4CCCc5ccccc54)N(C(=O)[C@@H](NC(=O)[C@H](C)NC)C4CCCCC4)C3)c2)C[C@H]1C(=O)N[C@@H]1CCCc2ccccc21)C1CCCCC1 [Compound P3-53]
0.214 µM	CN[C@@H](C)C(=O)N[C@H](C(=O)N1C[C@@H](NC(=O)C[C@H](NC(C)=O)C(=O)N[C@H]2C[C@@H](C(=O)N[C@@H]3CCCc4ccccc43)N(C(=O)[C@@H](NC(=O)[C@H](C)NC)C(C)(C)C)C2)C[C@H]1C(=O)N[C@@H]1CCCc2ccccc21)C(C)(C)C [Compound P3-67]
0.023 µM	CN[C@@H](C)C(=O)N[C@H](C(=O)N1C[C@@H](NC(=O)c2cc(C(=O)N[C@H]3C[C@@H](C(=O)NCc4ccc(F)cc4)N(C(=O)[C@@H](NC(=O)[C@H](C)NC)C(C)(C)C)C3)[nH]n2)C[C@H]1C(=O)NCc1ccc(F)cc1)C(C)(C)C [Compound P3-72]
0.072 µM	CC[C@H](C)C(NC(=O)[C@H](C)NC)C(=O)N1C[C@@H](NC(=O)c2cc(OC)cc(C(=O)N[C@H]3C[C@@H](C(=O)N[C@H](C)c4ccccc4)N(C(=O)C(NC(=O)[C@H](C)NC)[C@@H](C)CC)C3)c2)C[C@H]1C(=O)NC(C)c1ccccc1 (some centres unmarked) [Compound P3-74]
0.081 µM	CN[C@@H](C)C(=O)N[C@H]1CC#CC#CC[C@H](NC(=O)[C@H](C)NC)C(C)N2C[C@H](C[C@H]2C(=O)N[C@@H]2CCCc3ccccc32)NC(=O)c2ccc(cc2)C(=O)N[C@H]2C[C@@H](C(=O)N[C@@H]3CCCc4ccccc43)N(C2)C1C (some centres unmarked) [Compound P3-8]

The next lines start with the molecule.

Structure (SMILES)	IC50
CN[C@@H](C)C(=O)N[C@H](C(=O)N1C[C@@H](NC(=O)c2ccccc2C(=O)N[C@H]2C[C@@H](C(=O)N[C@@H]3CCCc4ccccc43)N(C(=O)[C@@H](NC(=O)[C@H](C)NC)C(C)(C)C)C2)C[C@H]1C(=O)N[C@@H]1CCCc2ccccc21)C(C)(C)C [Compound P3-20]	0.008 µM
CN[C@@H](C)C(=O)N[C@H](C(=O)N1C[C@@H](NC(=O)c2cc(NC(C)=O)cc(C(=O)N[C@H]3C[C@@H](C(=O)N[C@@H]4CCCc5ccccc54)N(C(=O)[C@@H](NC(=O)[C@H](C)NC)C(C)(C)C)C3)c2)C[C@H]1C(=O)N[C@@H]1CCCc2ccccc21)C(C)(C)C [Compound P3-42]	0.011 µM
CN[C@@H](C)C(=O)N[C@H](C(=O)N1CCC[C@H]1C(=O)N[C@H](CNC(=O)[C@@H]1CC[C@](C)(C(=O)NC[C@@H](NC(=O)[C@@H]2CCCN2C(=O)[C@@H](NC(=O)[C@H](C)NC)C(C)(C)C)c2ccccc2)C1(C)C)c1ccccc1)C(C)(C)C [Compound P3-48]	0.183 µM
CN[C@@H](C)C(=O)N[C@H](C(=O)N1C[C@@H](NC(=O)c2cc(C(=O)N[C@H]3C[C@@H](C(=O)NC4CCCc5ccccc54)N(C(=O)[C@@H](NC(=O)[C@H](C)NC)C(C)(C)C)C3)cc([N+](=O)[O-])c2)CC1C(=O)N[C@@H]1CCCc2ccccc21)C(C)(C)C (some centres unmarked) [Compound P3-16]	0.007 µM
CN[C@@H](C)C(=O)N[C@H](C(=O)N1C[C@@H](NC(=O)c2cccnc2-c2ncccc2C(=O)N[C@H]2C[C@@H](C(=O)NC3CCCc4ccccc43)N(C(=O)[C@@H](NC(=O)[C@H](C)NC)C(C)(C)C)C2)CC1C(=O)N[C@@H]1CCCc2ccccc21)C(C)(C)C (some centres unmarked) [Compound P3-39]	0.006 µM
CN[C@@H](C)C(=O)N[C@H](C(=O)N1C[C@@H](NC(=O)c2cncc(C(=O)N[C@H]3C[C@@H](C(=O)N[C@@H]4CCCc5ccccc54)N(C(=O)[C@@H](NC(=O)[C@H](C)NC)C(C)(C)C)C3)c2)C[C@H]1C(=O)N[C@@H]1CCCc2ccccc21)C(C)(C)C [Compound P3-11]	0.003 µM
CN[C@@H](C)C(=O)N[C@H](C(=O)N1C[C@@H](NC(=O)C(C)C(C)C(=O)N[C@H]2C[C@@H](C(=O)N[C@@H]3CCCc4ccccc43)N(C(=O)[C@@H](NC(=O)[C@H](C)NC)C(C)(C)C)C2)C[C@H]1C(=O)N[C@@H]1CCCc2ccccc21)C(C)(C)C (some centres unmarked) [Compound P3-24]	0.006 µM
CN[C@@H](C)C(=O)N[C@H](C(=O)N1C[C@@H](NC(=O)c2cccc(C(=O)N[C@H]3C[C@@H](C(=O)N(C)Cc4ccccc4)N(C(=O)[C@@H](NC(=O)[C@H](C)NC)C(C)(C)C)C3)c2)C[C@H]1C(=O)N(C)Cc1ccccc1)C(C)(C)C [Compound P3-49]	0.141 µM
CN[C@@H](C)C(=O)N[C@H](C(=O)N1C[C@@H](NC(=O)c2ccc(-c3ccc(C(=O)N[C@H]4C[C@@H](C(=O)NC5CCCc6ccccc65)N(C(=O)[C@@H](NC(=O)[C@H](C)NC)C(C)(C)C)C4)cn3)nc2)CC1C(=O)N[C@@H]1CCCc2ccccc21)C(C)(C)C (some centres unmarked) [Compound P3-40]	0.005 µM

Same assay, conditions: HCC461 cells, compound alone; read-out: IC50 (uM) in cell viability assay in HCC461

IC50	Structure (SMILES)
0.45 µM	CN[C@@H](C)C(=O)N[C@H](C(=O)N1C[C@@H](NC(=O)c2cccc(C(=O)N[C@H]3C[C@@H](C(=O)NC4CCCC5CCCCC54)N(C(=O)[C@@H](NC(=O)[C@H](C)NC)C(C)(C)C)C3)c2)C[C@H]1C(=O)NC1CCCC2CCCCC21)C(C)(C)C (some centres unmarked) [Compound P3-59]
